Assay results reported in patent publication US12019075B2, “Zwitterionic nanoparticles” (FRAUNHOFER-GESELLSCHAFT ZUR FOERDERUNG DER ANGEWANDTEN …, priority 2017, dated 2024).

Tested on: A549 cells
Assay: Toxicity test with Cellomics Array Scan
Format: cell-based, human
Protocol: The toxicity of the zwitterionic QDQRs-17a and QDQRs-17b was tested using the Cellomics Array Scan. For the toxicity tests, A549 cells were plated on a 96-well plate and incubated with QDQR solutions in a concentration range of 25 to 500 nM. Cadmium chloride, which was used in a concentration range from 25 to 1,000 μM, was used as the positive control. The increase in the cadmium chloride concentration by a factor of 1,000 is due to the fact that a single QDQR of the tested samples contains about 8,200 cadmium atoms. Assuming that the totality of the nanoparticles dissolve and release the cadmium contained in them, the lowest concentration of 25 nM QDQRs used would correspond to a concentration of 205 μM cadmium chloride. After an incubation period of 16 hours, the cells were blended with a staining solution consisting of the cell nucleus dye Hoechst 33342 and the mitochondrial dye MitoTracker® Deep Red FM and then fixed with formaldehyde solution. The 96-well plates were then read out with the Cellomics Array Scan. A software was used to automatically determine the parameters number of cells, cell nucleus intensity and cell nucleus size using the intensity of the dye by Hoechst, and the transmembrane potential of the mitochondria on the basis of the mitochondrial dye. In addition, microscopic images of the cells were taken to control the number of cells and cell morphology.
For the toxicity tests, A549 cells were plated in culture medium on a 96-well plate (10,000 cells per well) and incubated overnight. When the medium had been sucked off, the samples to be tested (diluted with culture medium, 100 μL per well) were applied in different concentrations and incubated for 16 hours. The samples were then removed and the cells were mixed with 100 μL staining solution (final concentration: 75 nM MitoTracker® Deep Red and […] Hoechst 33342 in DMEM with 10% FCS) and incubated for a further 30 minutes. […] After 20 minutes, the fixing solution was sucked off and washed twice with DPBS before the samples were measured on the Cellomics Array Scan.

## [Cl][Cd][Cl] [cadmium chloride]
16 hours incubation
  morphological changes of the cells or cell nuclei (microscopic images): the number of cells decreases noticeably and they get globular
16 hours incubation, tested 25 to 1,000 μM
  concentration with toxic effect on the cells: ≥ 100 µM
16 hours, 100 μM or more
  number of cells per well, cell nucleus intensity and cell nucleus size: decreases significantly
